Data reported in patent EP4663632A1, “COMPOUNDS USEFUL FOR THE MODULATION OF THE ACTIVITY OF STING” (Sulis Therapeutics ApS, priority 2024, dated 2025).
“Also recorded” adds a separate entry of the source.

Columns and labels:
[1] = molecular target: T1, STING (Homo sapiens, UniProt Q86WV6); assay: Western Blot analysis for STING degradation in H596 cells; type: cell-based; settings: 24h; for STING degradation (Western Blot, Figure 1): H596 cells, 0.22 µM, 0.67 µM, 2 µM and 6 µM
Protocol: For cell lysing for Western Blot analysis cell culture plates were brought to ice, supernatant was removed by aspiration and cells washed 2x in ice-cold DPBS. Cells were lysed in 65 µL of RIPA buffer supplemented with cOmplete ULTRA Tablets protease inhibitor cocktail, PIERCE Phosphatase inhibitor mini tablet, Benzonase and 10mM NaF for 20 min on ice. Lysates were collected, cleared by centrifugation (13000xg for 10 min at 4°C). Samples were either analysed directly or stored at -80°C until analysis.
For Western Blotting, total protein concentration in each lysate was determined using PIERCE Gold BCA Assay kit according to manufactures protocol. 6 µg of total protein was mixed with 2x Laemmli buffer containing DTT, boiled for 5 min at 95°C, cooled on ice and loaded into each well of a 4-20% Criterion TGX gel. Proteins were separated by electrophoresis, by running for 1h at 150V. After separation proteins were blotted onto a PVDF membrane by semi-dry transfer using Trans-Blot turbo system at pre-defined BioRad MIDI protocol; 25V, 1A (fixed) for 30 min. Membranes were blocked for 1h in 5% skim milk in TBS-T20 on a rocker at room temperature followed by washing and exposure to primary antibodies against human STING 1:1000 (Cell Signalling, #13647) or loading controls Vinculin 1:1000 (Cell Signalling, #13901) or beta-Actin 1:10000 (Sigma, A5441) all diluted in 5% BSA in TBS-T20. Membranes were probed over night at 4°C on a rocker. Membranes were washed 3x in TBS-T20 followed by exposure to secondary HRP-conjugated anti-rabbit antibody or HRP-conjugated anti-mouse antibody diluted 1:10000 in 5% skim milk in TBS-T20 as appropriate. Membranes were incubated for 1h at room temperature on a rocker, then washed 3x in TBS-T20.
For generating DC50 values, the intensity of individual bands was measured using imaged and expression levels were calculated as a ratio of STING intensities vs. Reference protein intensities and normalized to DMSO control. The normalized ratios were plotted on a XY curve in GraphPad Prism where DC50 was estimated using a 4-parameter non-linear regression fitting curve.
To assess STING degradation in H596 cells (ATCC, HTB-178) cells were seeded at a density of 100.000 cells/well in 24-well Nunclon Delta surface treated culture plate in RPMI-1640 growth medium (supplemented with 10% FBS, 1% Pen-strep). Cells were incubated over-night at 37°C 5% CO2 to allow adhesion. Next day growth medium was renewed and a 5x concentration of test compounds (2.5% DMSO) diluted in growth medium were added to the appropriate well. Final DMSO concentration was 0.5%. Cell culture plates were returned to the incubator for additional 24h. Final test compound concentrations were 0.22 µM, 0.67 µM, 2 µM and 6 µM.
For cell lysis, western blotting and data analysis, the methods described above for HFF-1 cells were applied.

[2] = molecular target: T1, STING; assay: Western Blot analysis of STING phosphorylation in human fibroblast cells (STING agonism); type: cell-based; set-up: host or cells: HFF-1 human foreskin fibroblasts; settings: 7.2µM-3.6nM; 24h
Protocol: Human fibroblast were treated with a titration of E22, E9, E14 and E16 (7.2µM-3.6nM) for 24h prior to cell lysis and subsequently total STING, pSTING and Vinculin were assessed by western blot using rabbit anti-STING (1:1000), anti-pSTING (1:1000), anti-Vinculin (1:1000) and 2nd anti-rabbit-HRP (1:10.000) or anti-mouse-HRP (1:7500). Proteins were visualized using ImageQuant800. Control cells included untreated cells and cells treated with 300nM diABZI C3.

[3] = molecular target: T1, STING; assay: Inhibition of STING-agonist-induced IFN-β release in HFF-1 cells (HFF-1 STING inhibition assay); type: cell-based; set-up: host or cells: HFF-1 human foreskin fibroblasts; settings: 24h with compound, then 0.3 µM diABZI c3, 6h; ELISA
Protocol: To evaluate cellular effects of test compounds, we assessed inhibition of STING-agonist-induced IFN-β release in human foreskin fibroblasts HFF-1 cells (ATCC, SCRC-1041). Cells were seeded at a density of 10.000 cells/well in 96-well Nunclon Delta surface treated culture plate in DMEM growth medium (supplemented with 10% FBS, 1% Pen-strep). Cells were incubated over-night at 37°C 5% CO2 to allow adhesion. Next morning growth medium was renewed and a 7x concentration 3-step dilution series of test compounds (2,1% DMSO) diluted in growth medium were added to the appropriate well. Final DMSO concentration was 0.3%. […] Cells culture plates were further incubated, and supernatants were harvested after 6h and immediately stored at -20°C until determination of IFN-β release. Cell supernatants were analysed for IFN-β release using DuoSet human IFN-β ELISA (R&D systems, DY-814) following manufactures protocol except using 96-well, half-volume plates from Corning and subsequently use half volume for all steps throughout the protocol. In brief, plates were coated o/n with a 130x dilution of capturing antibody in PBS. Wells were washed 3x with PBS-T20 followed by blocking with 1% BSA diluted in TBS-T20 for 1h. […] Wells were washed 3x with PBS-T20 and detection antibody diluted 1:60 in 1% BSA in PBS was added to each well and incubated for 2h at rt. […]

[4] = Pharmacokinetic profiling of Example compounds in mouse; type: in vivo; settings: mice
Protocol: Mice were administered with either 10 mg/kg Example compound 16 (Figure 10A) or 8 mg/kg Example compound 24 (Figure 10B) by subcutaneous injection. Plasma concentration of test compound was measured over the course of 8 hours.

T1 sequence (Q86WV6 whole entry): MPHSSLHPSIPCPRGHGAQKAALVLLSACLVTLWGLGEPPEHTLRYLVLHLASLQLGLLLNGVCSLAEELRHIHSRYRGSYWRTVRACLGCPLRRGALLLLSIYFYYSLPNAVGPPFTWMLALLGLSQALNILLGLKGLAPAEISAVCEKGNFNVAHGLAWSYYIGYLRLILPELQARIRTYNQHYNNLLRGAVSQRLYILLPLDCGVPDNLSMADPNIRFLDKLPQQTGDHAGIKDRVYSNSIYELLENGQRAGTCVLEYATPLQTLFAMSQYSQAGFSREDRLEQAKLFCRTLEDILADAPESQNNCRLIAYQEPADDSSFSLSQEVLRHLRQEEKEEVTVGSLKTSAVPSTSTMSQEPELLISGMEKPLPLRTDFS

DC50 ([1]; reference protein beta-actin)	STING phosphorylation (pSTING) [2]	EC50 [3]	plasma exposure ([4]; subcutaneous injection (10 mg/kg Example compound 16, 8 mg/kg Example compound 24))	concentration at 8 h ([4]; mouse, plasma, sc, 10 mg/kg subcutaneous injection, read-out: plasma concentration 8 hours after injection)	Structure (SMILES)	STING degradation (Western Blot, Figure 1) [1]	total STING protein levels [2]
1000 to 5000 nM	no STING phosphorylation was observed	1000 to 5000 nM	–	–	CCn1nc(C)cc1C(=O)N=c1n(C)c2cc(C(N)=O)ccc2n1CCC(CCn1c(=NC(=O)c2cc(C)nn2CC)n(C)c2cc(C(N)=O)ccc21)OCC(=O)NCCOCCOCCOCCOCCC(=O)NCCOCCOCCOCCOCC(=O)N[C@H](C(=O)N1C[C@H](O)C[C@H]1C(=O)NCc1ccc(-c2scnc2C)cc1)C(C)(C)C (some centres unmarked) [Example 14]	inducing visible degradation in H1650 and H596 at the higher concentrations tested	total STING protein levels were observed to decrease
–	no STING phosphorylation was observed	< 200 nM	prolonged plasma exposure	~100 nM	CCn1nc(C)cc1C(=O)N=c1n(C)c2cc(C(N)=O)ccc2n1CCC(CCn1c(=NC(=O)c2cc(C)nn2CC)n(C)c2cc(C(N)=O)ccc21)OCC(=O)NCCOCCOCCOCCOCCC(=O)NCCOCCOCCOCCOCCNc1cccc2c1C(=O)N(C1CCC(=O)NC1=O)C2=O (centres unmarked) [Example 16]	induced STING degradation in all cell lines tested at all concentrations tested; also recorded: showed a more potent effect of induction of STING degradation than Example compound 14	total STING protein levels were observed to decrease
